System: guinea pig skin
Experiment: Pigment changes with topical application on guinea pig skin (melanin stimulation)
Format: in vivo
Description: Compounds 10, 117 and 123 in a solution of 75% PG/25% DMSO at 300 μM and 600 μM were provided in light tight containers and stored at 4 degrees C. Solutions were brought to room temp and vortexed prior to each use. Female Guinea pigs were shaved with electric clippers and the remaining stubble removed with Nair. The dorsal area of each guinea pig was divided into 2-3 sections. Treatment with compounds/vehicle began immediately after Nair application. 25 μL of each solution was applied to the assigned treatment site twice daily for 5 days. Hair removal, monitoring and photography continued once weekly for 30 days. Photos were taken with a Nikon D80 Digital SLR camera and Miravex Antera Melanin sensing camera.

[1] = 0.025 mL of 600 μM applied on guinea pig skin twice daily for five consecutive days, by day 15

Compound | melanin stimulation relative to surrounding untreated skin [1] | melanin stimulation relative to surrounding untreated skin (0.025 mL of 300 μM applied on guinea pig skin twice daily for five consecutive days, by day 8)
Thymidine dinucleotide 5′-phosphate [reference compound] | marked melanin stimulation | –
Cc1cn(CC(Cn2cc(C)c(=O)[nH]c2=O)C(=O)O)c(=O)[nH]c1=O [Compound 117] | marked melanin stimulation | –
C[C@@]12C(=O)NC(=O)N3CCCN4C(=O)NC(=O)[C@]1(C)[C@H]4[C@H]32 [Compound 10] | – | marked melanin stimulation

Source: patent US9987211B2, “Sunless tanning compounds and compositions” (REGENTS OF THE UNIVERSITY OF MINNESOTA, priority 2013, dated 2018)
